Results on one molecule are retold here after the NIST ThermoML archive (doi:10.1021/acs.jced.7b01112).

Data set [1] is described as follows: Molar enthalpy of transition or fusion. Particulars: Crystal; DSC.
The conditions of data set [2]: Crystal; DTA.

± gives the expanded uncertainty stated by the source.

On to `O=C(O)c1ccc(C(=O)O)o1` [2,5-furandicarboxylic acid], for which, in data set [1], the “Molar enthalpy of transition or fusion” value was 13.2 ± 0.837 kcal/mol. For the same molecule, the Normal melting temperature in data set [2] came out at 341.30 ± 0.7 °C.
